Reference: patent EP0087751B1, “Water-soluble peptides from very poorly soluble amino acids” (PFRIMMER KABI GMBH & CO. KG, priority 1982, dated 1985)
Values after ≈ are worked out from the molar mass of the structure shown. One block for each compound: values may come before it. Where a SMILES comes first, the peptide text is derived from it.

Tests used:
[1] = Solubility in water
[2] = Solubility in water; assay type: physicochemical; settings: for Löslichkeit: in water

solubility [1]: 0.09 mg/mL (≈ 0.375 mM)
Compound: N[C@@H](CSSC[C@H](N)C(=O)O)C(=O)O [Cystin]

Compound: NCCCC[C@H](N)C(=O)O [Lysin]
solubility [1]: 666 mg/mL (≈ 4560 mM)

Löslichkeit ([2]; temperature not stated): 622 g/L H20
Faktor besser löslich in Wasser als das freie Tyrosin ([2]; ratio of water solubility of the tripeptide to that of free Tyrosin): 1,62 . 10^3
Compound: N[C@@H](Cc1ccc(O)cc1)C(=O)NCCCC[C@H](NC(=O)[C@@H](N)Cc1ccc(O)cc1)C(=O)O [N^2-Tyrosinyl-N^6-tyrosinyl-lysin, N^2-Tyrosinyl-N^6-L-tyrosinyl-L-lysin] (H-Tyr-Lys(Tyr)-OH)

Löslichkeit ([2]; 20°C): 125 g/L H20
Compound: N^2-Cystinyl-N^6-L-cystinyl-L-lysin [N^2,N^6-Di-L-cystinyl, L-lysin]
